According to PubChem BioAssay (NCI):
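Where inhibition never reached the appropriate level, the endpoint shown equals the highest concentration tested. Otherwise, values were interpolated linearly from a five-concentration, 48-hour dose response in 96-well plates. The concentration for full growth arrest is given as TGI.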

How the values were obtained:
Experiment in all cases: NCI tumour cell line growth inhibition, 48 h
[1] = tested on: TK-10 renal
[2] = tested on: DU-145 prostate
[3] = tested on: SF-295 CNS
[4] = tested on: MDA-N
[5] = tested on: HOP-92 NSCLC
[6] = tested on: HCT-15 colon
[7] = tested on: T-47D breast
[8] = tested on: RXF 393 renal
[9] = tested on: SK-MEL-28 melanoma
[10] = tested on: CAKI-1 renal
[11] = tested on: OVCAR-3 ovarian
[12] = tested on: COLO 205 colon
[13] = tested on: SK-MEL-5 melanoma
[14] = tested on: HS 578T breast
[15] = tested on: LOX IMVI melanoma
[16] = tested on: NCI-H226 lung
[17] = tested on: A498 renal
[18] = tested on: SF-539 CNS
[19] = tested on: BT-549 breast
[20] = tested on: SNB-19 CNS
[21] = tested on: UACC-62 melanoma
[22] = tested on: HL-60(TB) leukemia
[23] = tested on: NCI-H23 lung
[24] = tested on: OVCAR-4 ovarian
[25] = tested on: UACC-257 melanoma
[26] = tested on: CCRF-CEM leukemia
[27] = tested on: MDA-MB-435
[28] = tested on: SF-268 CNS
[29] = tested on: MALME-3M melanoma
[30] = tested on: HCC-2998 colon
[31] = tested on: OVCAR-5 ovarian
[32] = tested on: SR leukemia
[33] = tested on: RPMI-8226 leukemia
[34] = tested on: MDA-MB-231 breast
[35] = tested on: K-562 leukemia
[36] = tested on: PC-3 prostate
[37] = tested on: UO-31 renal
[38] = tested on: EKVX NSCLC
[39] = tested on: KM12 colon
[40] = tested on: NCI/ADR-RES ovarian
[41] = tested on: IGROV1 ovarian
[42] = tested on: ACHN renal
[43] = tested on: U251 CNS
[44] = tested on: MCF7 breast
[45] = tested on: SNB-75 CNS
[46] = tested on: HT29 colon
[47] = tested on: NCI-H522 lung
[48] = tested on: NCI-H460 lung
[49] = tested on: OVCAR-8 ovarian
[50] = tested on: MOLT-4 leukemia
[51] = tested on: A549 NSCLC
[52] = tested on: SK-MEL-2 melanoma
[53] = tested on: SW-620 colon
[54] = tested on: HOP-62 NSCLC
[55] = tested on: SN12C renal
[56] = tested on: 786-0 renal
[57] = tested on: SK-OV-3 ovarian
[58] = tested on: M14 melanoma
[59] = tested on: HCT-116 colon

## CC1OC(OC2C(O[C@@H]3C[C@@H]4CC[C@@H]5[C@H](CC[C@]6(C)C7C(C[C@@H]56)O[C@]5(CC[C@@H](C)CO5)[C@H]7C)[C@@]4(C)C[C@H]3O)OC(CO)C(O)C2O)C(O)C(O)C1O (some centres undefined)
[1]
  TGI: 3.06 µM
[2]
  TGI: 3.13 µM
[3]
  TGI: 3.2 µM
[4]
  TGI: 13.6 µM
[5]
  TGI: 6.25 µM
[6]
  TGI: 3.27 µM
[7]
  TGI: 3.7 µM
[8]
  TGI: 3.65 µM
[9]
  TGI: 3.43 µM
[10]
  TGI: 3.22 µM
[11]
  TGI: 3.02 µM
[12]
  TGI: 3.41 µM
[13]
  TGI: 4.22 µM
[14]
  TGI: 5.26 µM
[15]
  TGI: 3.29 µM
[16]
  TGI: 6.08 µM
[17]
  TGI: 5.29 µM
[18]
  TGI: 3.02 µM
[19]
  TGI: 4.15 µM
[20]
  TGI: 33 µM
[21]
  TGI: 3.16 µM
[22]
  TGI: 4.48 µM
[23]
  TGI: 3.14 µM
[24]
  TGI: 3.28 µM
[25]
  TGI: 3.35 µM
[26]
  TGI: 3.52 µM
[27]
  TGI: 2.86 µM
[28]
  TGI: 3.5 µM
[29]
  TGI: 3.15 µM
[30]
  TGI: 3.21 µM
[31]
  TGI: 2.85 µM
[32]
  TGI: 5.24 µM
[33]
  TGI: 4.9 µM
[34]
  TGI: 3.19 µM
[35]
  TGI: 5.94 µM

## O=C(NCC(C(=O)OCc1ccccc1)C(=O)OCc1ccccc1)OCc1ccccc1
[36]
  TGI: > 100 µM
[37]
  TGI: > 100 µM
[1]
  TGI: > 100 µM
[38]
  TGI: > 100 µM
[2]
  TGI: > 100 µM
[3]
  TGI: > 100 µM
[39]
  TGI: > 100 µM
[40]
  TGI: > 100 µM
[4]
  TGI: > 100 µM
[41]
  TGI: > 100 µM
[5]
  TGI: > 100 µM
[6]
  TGI: > 100 µM
[42]
  TGI: > 100 µM
[43]
  TGI: > 100 µM
[8]
  TGI: > 100 µM
[44]
  TGI: > 100 µM
[45]
  TGI: > 100 µM
[9]
  TGI: > 100 µM
[10]
  TGI: > 100 µM
[11]
  TGI: > 100 µM
[12]
  TGI: > 100 µM
[13]
  TGI: > 100 µM
[14]
  TGI: > 100 µM
[46]
  TGI: > 100 µM
[47]
  TGI: > 100 µM
[16]
  TGI: > 100 µM
[18]
  TGI: > 100 µM
[19]
  TGI: > 100 µM
[20]
  TGI: > 100 µM
[21]
  TGI: > 100 µM
[48]
  TGI: > 100 µM
[49]
  TGI: > 100 µM
[50]
  TGI: > 100 µM
[23]
  TGI: > 100 µM
[51]
  TGI: > 100 µM
[52]
  TGI: > 100 µM
[53]
  TGI: > 100 µM
[54]
  TGI: > 100 µM
[25]
  TGI: > 100 µM
[55]
  TGI: > 100 µM
[27]
  TGI: > 100 µM
[28]
  TGI: > 100 µM
[29]
  TGI: > 100 µM
[30]
  TGI: > 100 µM
[31]
  TGI: > 100 µM
[32]
  TGI: > 100 µM
[33]
  TGI: > 100 µM
[56]
  TGI: > 100 µM
[57]
  TGI: > 100 µM
[35]
  TGI: > 100 µM
[58]
  TGI: > 100 µM

## O=CC1C[C@@H](N2C(=O)O[C@@H](c3ccccc3)[C@H]2c2ccccc2)[C@@H]1COCc1ccccc1 (some centres undefined)
[36]
  TGI: 43.1 µM
[37]
  TGI: 29.3 µM
[1]
  TGI: 44.5 µM
[38]
  TGI: 43.2 µM
[2]
  TGI: 35.7 µM
[3]
  TGI: 39.9 µM
[39]
  TGI: > 100 µM
[40]
  TGI: 83.6 µM
[4]
  TGI: 38.1 µM
[41]
  TGI: 35.4 µM
[5]
  TGI: 30.3 µM
[6]
  TGI: 36.3 µM
[42]
  TGI: 73.2 µM
[43]
  TGI: 30.1 µM
[8]
  TGI: 46.3 µM
[44]
  TGI: 55.1 µM
[9]
  TGI: 40.4 µM
[10]
  TGI: > 100 µM
[11]
  TGI: 36.4 µM
[12]
  TGI: 42 µM
[13]
  TGI: 29.1 µM
[14]
  TGI: 72.3 µM
[15]
  TGI: 38.6 µM
[46]
  TGI: 37.8 µM
[47]
  TGI: 34 µM
[16]
  TGI: 42.2 µM
[17]
  TGI: 49.2 µM
[18]
  TGI: 37 µM
[19]
  TGI: 43.3 µM
[20]
  TGI: 37.6 µM
[21]
  TGI: 39.9 µM
[48]
  TGI: 41.7 µM
[22]
  TGI: 56.7 µM
[49]
  TGI: 55.9 µM
[50]
  TGI: 84.4 µM
[23]
  TGI: 33.4 µM
[51]
  TGI: > 100 µM
[52]
  TGI: 30.8 µM
[53]
  TGI: 77.1 µM
[24]
  TGI: > 100 µM
[59]
  TGI: 32.8 µM
[54]
  TGI: 44.5 µM
[25]
  TGI: 41.7 µM
[55]
  TGI: 48 µM
[27]
  TGI: 51.4 µM
[28]
  TGI: 37.1 µM
[29]
  TGI: 31.5 µM
[30]
  TGI: 34.9 µM
[31]
  TGI: 52.3 µM
[32]
  TGI: 45.7 µM
[33]
  TGI: > 100 µM
[56]
  TGI: 31.2 µM
[34]
  TGI: 30.7 µM
[35]
  TGI: > 100 µM
[58]
  TGI: 34.2 µM

## Cc1csc2nc3[nH]ncc3c(=O)n12
[36]
  TGI: > 100 µM
[37]
  TGI: > 100 µM
[38]
  TGI: > 100 µM
[3]
  TGI: > 100 µM
[39]
  TGI: > 100 µM
[40]
  TGI: > 100 µM
[4]
  TGI: > 100 µM
[41]
  TGI: > 100 µM
[6]
  TGI: > 100 µM
[42]
  TGI: > 100 µM
[7]
  TGI: > 100 µM
[43]
  TGI: > 100 µM
[44]
  TGI: > 100 µM
[45]
  TGI: > 100 µM
[9]
  TGI: > 100 µM
[10]
  TGI: > 100 µM
[11]
  TGI: > 100 µM
[12]
  TGI: > 100 µM
[13]
  TGI: > 100 µM
[14]
  TGI: > 100 µM
[15]
  TGI: > 100 µM
[46]
  TGI: > 100 µM
[47]
  TGI: > 100 µM
[16]
  TGI: > 100 µM
[18]
  TGI: > 100 µM
[19]
  TGI: > 100 µM
[20]
  TGI: > 100 µM
[21]
  TGI: > 100 µM
[48]
  TGI: > 100 µM
[49]
  TGI: > 100 µM
[50]
  TGI: > 100 µM
[23]
  TGI: > 100 µM
[51]
  TGI: > 100 µM
[52]
  TGI: > 100 µM
[53]
  TGI: > 100 µM
[24]
  TGI: > 100 µM
[59]
  TGI: > 100 µM
[54]
  TGI: > 100 µM
[25]
  TGI: > 100 µM
[26]
  TGI: > 100 µM
[55]
  TGI: > 100 µM
[27]
  TGI: > 100 µM
[28]
  TGI: > 100 µM
[29]
  TGI: > 100 µM
[30]
  TGI: > 100 µM
[31]
  TGI: > 100 µM
[32]
  TGI: > 100 µM
[33]
  TGI: > 100 µM
[56]
  TGI: > 100 µM
[57]
  TGI: > 100 µM
[34]
  TGI: > 100 µM
[35]
  TGI: > 100 µM
[58]
  TGI: > 100 µM
